Reference: the supplement of paper PMC10307832

Columns and labels:
Assay in all cases: relative viability (nuclei count vs DMSO), 5 days (fraction); higher = more cells survive
[1] = tested on: SW 1573
Summary of the method: (§1)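 Cells from lung cancer lines were seeded into 1536-well plates and, one day later, dosed by pin tool. Treatments were either a single drug or a fixed dose of an anchor drug with five library-drug doses (not always all listed) in √10 steps. After 5 days, nuclei were stained in a one-step fixation (final 0.05% Triton X-100, 1% formaldehyde, 1 ug/ml Hoechst) and counted on 4× images, and relative viability is the treated-to-vehicle nuclei ratio, as the median of duplicate plates.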

[2] = tested on: NCI-H596
Summary of the method: as §1

[3] = tested on: LC-2-ad
Summary of the method: as §1

[4] = tested on: NCI-H2023
Summary of the method: as §1

[5] = tested on: NCI-H2347
Summary of the method: as §1

[6] = tested on: NCI-H1993
Summary of the method: as §1

[7] = tested on: NCI-H441
Summary of the method: as §1

[8] = tested on: NCI-H1650
Summary of the method: as §1

[9] = tested on: NCI-H520
Summary of the method: as §1

[10] = tested on: HCC-78
Summary of the method: as §1

[11] = tested on: NCI-H1793
Summary of the method: as §1

[12] = tested on: A-427
Summary of the method: as §1

[13] = tested on: COR-L23
Summary of the method: as §1

[14] = tested on: LOU-NH91
Summary of the method: as §1

[15] = tested on: HCC-44
Summary of the method: as §1

[16] = tested on: EKVX
Summary of the method: as §1

[17] = tested on: HOP-62
Summary of the method: as §1

[18] = tested on: LXF-289
Summary of the method: as §1

[19] = tested on: NCI-H1734
Summary of the method: as §1

[20] = tested on: BEN
Summary of the method: as §1

Oc1nc(-c2ccc(C(F)(F)F)cc2)nc2c1CSCC2 [XAV939] + CC1(C)CCC(c2ccc(Cl)cc2)=C(CN2CCN(c3ccc(C(=O)NS(=O)(=O)c4ccc(N[C@H](CCN5CCOCC5)CSc5ccccc5)c(S(=O)(=O)C(F)(F)F)c4)cc3)CC2)C1 [Navitoclax] (partner 0.5 µM) gave a relative viability ([1]; first compound 0.08 µM) of 1.16, a relative viability ([1]; first compound 0.253 µM) of 0.957 and a relative viability ([1]; first compound 0.8 µM) of 0.83. The relative viability ([1]; first compound 2.53 µM) was 0.792, the relative viability ([2]; first compound 0.08 µM) was 0.887 and the relative viability ([2]; first compound 0.253 µM) was 1.09. The relative viability ([2]; first compound 0.8 µM) was 0.901, the relative viability ([2]; first compound 2.53 µM) was 0.756 and the relative viability ([3]; first compound 0.08 µM) was 0.389. For the same compound, the relative viability ([3]; first compound 0.253 µM) was 0.429, the relative viability ([3]; first compound 0.8 µM) was 0.6 and the relative viability ([3]; first compound 2.53 µM) was 0.428. The relative viability ([4]; first compound 0.08 µM) was 0.968, the relative viability ([4]; first compound 0.253 µM) was 0.843 and the relative viability ([4]; first compound 0.8 µM) was 0.862. It also gave a relative viability ([4]; first compound 2.53 µM) of 0.827, a relative viability ([5]; first compound 0.08 µM) of 0.788 and a relative viability ([5]; first compound 0.253 µM) of 0.886. For the same compound, the relative viability ([5]; first compound 0.8 µM) was 0.75, the relative viability ([5]; first compound 2.53 µM) was 0.698 and the relative viability ([6]; first compound 0.8 µM) was 0.698. The relative viability ([6]; first compound 2.53 µM) was 0.787, the relative viability ([7]; first compound 0.08 µM) was 0.571 and the relative viability ([7]; first compound 0.253 µM) was 0.683. The relative viability ([7]; first compound 0.8 µM) was 0.487, the relative viability ([7]; first compound 2.53 µM) was 0.973 and the relative viability ([8]; first compound 0.08 µM) was 1.18. For the same compound, the relative viability ([8]; first compound 0.253 µM) was 1.25, the relative viability ([8]; first compound 0.8 µM) was 1.05 and the relative viability ([8]; first compound 2.53 µM) was 0.653. The relative viability ([9]; first compound 0.08 µM) was 1.21, the relative viability ([9]; first compound 0.253 µM) was 0.988 and the relative viability ([9]; first compound 0.8 µM) was 0.861. The relative viability ([9]; first compound 2.53 µM) was 0.885, the relative viability ([10]; first compound 0.08 µM) was 0.842 and the relative viability ([10]; first compound 0.253 µM) was 0.736. It also gave a relative viability ([10]; first compound 0.8 µM) of 0.825, a relative viability ([10]; first compound 2.53 µM) of 0.613 and a relative viability ([11]; first compound 0.08 µM) of 0.593. For the same compound, the relative viability ([11]; first compound 0.253 µM) was 0.442, the relative viability ([11]; first compound 0.8 µM) was 0.369 and the relative viability ([11]; first compound 2.53 µM) was 0.452. The relative viability ([12]; first compound 0.08 µM) was 1.03, the relative viability ([12]; first compound 0.253 µM) was 0.989 and the relative viability ([12]; first compound 0.8 µM) was 0.9. It also gave a relative viability ([12]; first compound 2.53 µM) of 0.809, a relative viability ([13]; first compound 0.08 µM) of 1 and a relative viability ([13]; first compound 0.253 µM) of 0.855. It also gave a relative viability ([13]; first compound 0.8 µM) of 0.948, a relative viability ([13]; first compound 2.53 µM) of 0.892 and a relative viability ([14]; first compound 0.08 µM) of 0.636. For the same compound, the relative viability ([14]; first compound 0.253 µM) was 0.627, the relative viability ([14]; first compound 0.8 µM) was 0.692 and the relative viability ([14]; first compound 2.53 µM) was 0.652. For the same compound, the relative viability ([15]; first compound 0.08 µM) was 1.01, the relative viability ([15]; first compound 0.253 µM) was 0.945 and the relative viability ([15]; first compound 0.8 µM) was 0.948. The relative viability ([15]; first compound 2.53 µM) was 0.899, the relative viability ([16]; first compound 0.08 µM) was 1.02 and the relative viability ([16]; first compound 0.253 µM) was 0.814. For the same compound, the relative viability ([16]; first compound 0.8 µM) was 0.57, the relative viability ([16]; first compound 2.53 µM) was 0.557 and the relative viability ([17]; first compound 0.08 µM) was 1.08. It also gave a relative viability ([17]; first compound 0.253 µM) of 1.02, a relative viability ([17]; first compound 0.8 µM) of 0.995 and a relative viability ([17]; first compound 2.53 µM) of 0.932. The relative viability ([18]; first compound 0.08 µM) was 0.92, the relative viability ([18]; first compound 0.253 µM) was 0.911 and the relative viability ([18]; first compound 0.8 µM) was 0.949. The relative viability ([18]; first compound 2.53 µM) was 0.972, the relative viability ([19]; first compound 0.08 µM) was 0.921 and the relative viability ([19]; first compound 0.253 µM) was 0.866. It also gave a relative viability ([19]; first compound 0.8 µM) of 0.856, a relative viability ([19]; first compound 2.53 µM) of 0.855 and a relative viability ([20]; first compound 0.08 µM) of 0.0604. For the same compound, the relative viability ([20]; first compound 0.253 µM) was 0.0746 and the relative viability ([20]; first compound 0.8 µM) was 0.0568.
